Consider five molecules from patent publication US10213415B2, “Compounds as opioid receptor modulators” (JANSSEN PHARMACEUTICA NV, priority 2004, dated 2019).

For one assay, the target named is T1, delta opioid receptor (Rattus norvegicus, UniProt P33533).
T1 construct: from tissue; host or cells: forebrain of male Wistar rats
Description: Rat Brain Delta Opioid Receptor Binding Assay-Version 1a ([3H]naltrindole). As to conditions: rat forebrain membranes, 0.1 nM [3H]naltrindole; margin of error 10-20%; read-out: r Ki δ Ver. 1a. The protocol:
Male, Wistar rats (150-250 g, VAF, Charles River, Kingston, N.Y.) were killed by cervical dislocation, and their brains removed and placed immediately in ice-cold Tris HCl buffer (50 mM, pH 7.4). The forebrains were separated from the remainder of the brain by a coronal transection, beginning dorsally at the colliculi and passing ventrally through the midbrain-pontine junction. After dissection, the forebrains were homogenized in Tris buffer in a Teflon®-glass homogenizer. The homogenate was diluted to a concentration of 1 g of forebrain tissue per 80 mL Tris and centrifuged at 39,000×g for 10 min. The pellet was resuspended in the same volume of Tris buffer containing 5 mM MgCl2 with several brief pulses from a Polytron homogenizer. This particulate preparation was used for the delta opioid binding assay. Following incubation with 0.1 nM of the delta selective ligand [^3H]naltrindole at 25° C. for 2.5 h in a 96-well plate with total 1 mL, the plate contents were filtered through Wallac filtermat B sheets on a Tomtec 96-well harvester. The filters were rinsed three times with 2 mL of 10 mM HEPES (pH 7.4), and dried in a microwave oven. To each sample area, Betaplate Scint scintillation fluid (LKB) was added and the resulting radioactivity quantified on a LKB (Wallac) 1205 BetaPlate liquid scintillation counter. Kd and Ki values were calculated using the GraphPad PRISM data analysis program.

In another assay the target is T2, mu opioid receptor (Rattus norvegicus, UniProt P33535).
T2 construct: from tissue; host or cells: forebrain of male Wistar rats
Description: Rat Brain Mu Opioid Receptor Binding Assay (and Version 2a, [3H]DAMGO). As to conditions: rat forebrain membranes, margin of error 10-20%, read-out: r Ki μ. In outline:
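Rat forebrain membranes from male Wistar rats in 50 mM Tris-HCl pH 7.4 with 5 mM MgCl2 incubated with 0.8 nM [3H]DAMGO for 2.5 h at 25° C., then filtered and counted. Data given as % inhibition of specific binding at single concentrations or as Ki from concentration series.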

Another assay deals with T3, human mu opioid receptor (Homo sapiens, UniProt P35372).
T3 construct: purchased Perkin Elmer RBHOMM400UA; host or cells: Chinese Hamster Ovary cells (recombinant expression)
Description: Human Mu Opioid Receptor Binding Assay (CHO membranes, 3H-Damgo). Particulars: read-out: hKi μ. The method in brief:
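Membranes from CHO cells expressing human mu opioid receptor, 300 μg/mL, in 50 mM Tris pH 7.5, 5 mM MgCl2. Incubated with compound and ³H-Damgo (3.6 nM before mixing) for 2 h at room temperature, filtered, counted by scintillation. Nonspecific binding with 1 μM unlabelled Damgo.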

T1 sequence (P33533 whole entry): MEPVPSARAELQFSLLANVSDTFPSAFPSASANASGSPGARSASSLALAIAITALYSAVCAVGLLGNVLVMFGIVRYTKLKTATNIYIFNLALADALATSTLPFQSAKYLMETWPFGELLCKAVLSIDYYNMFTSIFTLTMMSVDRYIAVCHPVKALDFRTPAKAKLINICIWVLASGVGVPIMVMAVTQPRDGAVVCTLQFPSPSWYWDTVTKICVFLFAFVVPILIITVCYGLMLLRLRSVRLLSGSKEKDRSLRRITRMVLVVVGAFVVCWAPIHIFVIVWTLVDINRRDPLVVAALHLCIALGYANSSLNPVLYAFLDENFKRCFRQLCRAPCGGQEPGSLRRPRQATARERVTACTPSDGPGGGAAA
T2 sequence (P33535 whole entry): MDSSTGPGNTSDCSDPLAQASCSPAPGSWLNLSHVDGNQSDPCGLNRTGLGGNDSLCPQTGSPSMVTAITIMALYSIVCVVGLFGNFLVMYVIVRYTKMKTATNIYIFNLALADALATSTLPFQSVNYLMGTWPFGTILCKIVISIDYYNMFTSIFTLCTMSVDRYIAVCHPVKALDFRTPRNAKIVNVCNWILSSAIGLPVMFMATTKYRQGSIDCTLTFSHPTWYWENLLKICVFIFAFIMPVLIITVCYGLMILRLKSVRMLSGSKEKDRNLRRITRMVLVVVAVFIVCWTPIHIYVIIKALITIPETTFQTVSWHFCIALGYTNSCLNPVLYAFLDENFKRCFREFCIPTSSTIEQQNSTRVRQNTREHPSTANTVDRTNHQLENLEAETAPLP
T3 sequence (P35372 whole entry): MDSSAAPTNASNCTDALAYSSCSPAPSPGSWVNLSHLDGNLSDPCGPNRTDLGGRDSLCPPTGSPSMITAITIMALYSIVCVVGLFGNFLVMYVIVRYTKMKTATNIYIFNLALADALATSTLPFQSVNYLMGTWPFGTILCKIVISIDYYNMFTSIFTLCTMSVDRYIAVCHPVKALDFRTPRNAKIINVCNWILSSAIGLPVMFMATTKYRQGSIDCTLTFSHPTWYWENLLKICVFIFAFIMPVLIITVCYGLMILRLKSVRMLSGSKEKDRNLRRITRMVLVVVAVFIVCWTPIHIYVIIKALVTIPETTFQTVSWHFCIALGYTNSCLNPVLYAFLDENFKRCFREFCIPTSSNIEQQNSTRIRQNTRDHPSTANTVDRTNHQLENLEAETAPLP

For `C[C@@H](c1nc(-c2ccccc2)c[nH]1)N(Cc1ccc(C(=O)O)o1)C(=O)[C@@H](N)Cc1ccc(C(N)=O)cc1` [Cpd 304], the Ki at delta opioid receptor is 119 nM; on mu opioid receptor, 161 nM; on human mu opioid receptor, 41 nM.

As to `COc1ccc(CN(C(=O)[C@@H](N)Cc2c(C)cc(O)cc2C)[C@@H](C)c2nc(-c3ccccc3)c[nH]2)cc1C(=O)Nc1ccc(C(=O)O)cc1` [Cpd 308], the results for the Ki at delta opioid receptor and at mu opioid receptor were 0.48 nM and 1.2 nM, respectively.

With `COc1ccc(CN(C(=O)[C@@H](N)Cc2c(C)cc(O)cc2C)[C@@H](C)c2nc(-c3ccccc3)c[nH]2)cc1-c1nnn[nH]1` [Cpd 307], the values for the Ki at delta opioid receptor and on mu opioid receptor were 0.07 nM and 0.4 nM, respectively.

`COc1ccc(CN(C(=O)[C@@H](N)Cc2c(C)cc(O)cc2C)[C@@H](C)c2nc(-c3ccccc3)c[nH]2)cc1C(=O)Nc1cccc(C(=O)O)c1` [Cpd 306]: the Ki on delta opioid receptor turned out to be 0.18 nM; at mu opioid receptor, 0.9 nM.

Consider `COc1ccc(CN(C(=O)[C@@H](N)Cc2c(C)cc(O)cc2C)[C@@H](C)c2nc(-c3ccccc3)c[nH]2)cc1C(=O)Nc1ccccc1` [Cpd 305], for which the Ki on delta opioid receptor came out at 1.24 nM; at mu opioid receptor it was 0.2 nM.
